# Measurements from paper PMC10146281, “Pharmacokinetic and Pharmacodynamic Characteristics of Pelubiprofen Tromethamine vs. Pelubiprofen in Healthy Subjects” (Pharmaceutics, 2023).
# What was measured:
# [1] = design: method as in PMID 34070062; details: non-clinical studies; cited from earlier work
# [2] = Study II safety and tolerability evaluation (adverse events); format: in vivo, human; details: treatment of test (30 mg pelubiprofen tromethamine), 36 subjects evaluated, mild, 'not related'
# Procedure: In both Study I and II, the safety evaluation was performed on subjects administered with the investigational drug at least once. Any clinically significant findings in the interview, physical examination, vital signs, 12-lead electrocardiogram (ECG), the clinical laboratory test, etc., during the study period were collected as adverse events, which were subsequently evaluated for the incidence of serious adverse events, severity, causal relationship, etc. All relevant data were collected through monitoring by the investigator and voluntary reporting by the subjects. To collect additional data, interview and physical examination were performed where necessary. The investigator carried out the follow-up monitoring of the subjects with adverse events until the symptoms subsided and abnormal test values returned to a healthy baseline or until a satisfactory explanation for the observed change could be provided.
# [3] = Study II (DW1809-103): pharmacokinetic analysis of plasma pelubiprofen (LC-MS/MS) after single oral dose
# Procedure: In this study, the two independent clinical trials (Study I and II) were conducted using an identical randomized, open-label, oral, single-dose, fasted, two-sequence, four-period, crossover design. Due to the known pharmacokinetic characteristics of pelubiprofen with its large intra-subject variability, the replicated design was chosen to calculate the true intra-coefficient of variation in both studies. Study I tested 25 mg of pelubiprofen tromethamine (36.73 mg of pelubiprofen tromethamine salt; 25 mg of pelubiprofen, Daewon Pharmaceutical Co., Ltd., Seoul, Republic of Korea) against 30 mg of pelubiprofen (30.0 mg of pelubiprofen, Daewon Pharmaceutical Co., Ltd., Seoul, Republic of Korea) as the reference. Study II tested 30 mg of pelubiprofen tromethamine (44.07 mg of pelubiprofen tromethamine salt; 30 mg of pelubiprofen, Daewon Pharmaceutical Co., Ltd., Seoul, Republic of Korea) against 30 mg of pelubiprofen (30.0 mg of pelubiprofen, Daewon Pharmaceutical Co., Ltd., Seoul, Republic of Korea) as the reference. The target number of subjects in both Study I and II was set to N = 36 (N = 18 for each sequence group) (Figure 1, Table 1).
# The subject screening in both Study I and Study II was performed in the four weeks ([…]) prior to the first administration (Day 1). […] In addition, the screened subjects fasted for at least 10 h, excluding drinking water, from approximately 10 p.m. until administration of the investigational drug. The randomization in both Study I and II led the subjects to receive oral administration of a single test or reference tablet with approximately 150 mL of water at each time point from approximately 8 a.m. at approximately 2 min intervals according to their numbers. The subjects in both Study I and II were prohibited from drinking water for an hour before and after the administration, except during drug administration. The post-administration blood sampling and tests were performed as scheduled. All subjects were provided with identical meals approximately 4 h after blood sampling. The subjects in both Study I and II received the blood sampling and tests for the pharmacokinetic (PK) evaluation approximately 8 h after administration. Then, they were discharged following the completion of the first period of the study.
# To analyze the PK characteristics in both Study I and II, approximately 5 mL of blood was sampled before administration (0 h) and at the following time points after administration; 0.083 h (5 min), 0.167 h (10 min), 0.33 h (20 min), and 0.5, 0.75, 1, 1.5, 2, 2.5, 3, 3.5, 4, 6, and 8 h. Therefore, for each subject, the blood sampling was performed 15 times in each period, resulting in a total of 60 times. All four periods proceeded on the same schedule as the first period in both Study I and II. The wash-out period between each consecutive period was set to a minimum of four days. The subjects in both Study I and II, after completing all four periods, chose a day from Day 5 to Day 7 of the final administration in the four period for visiting the center to undergo post study visit.
# The validation of the quantitative analysis of plasma pelubiprofen in this study was performed in accordance with the following guidelines: the Validation Protocol for Pelubiprofen Quantification, the domestic Standard Operating Procedure (SOP) for Bioanalyses, the Guideline of Bioanalytical Method Validation (MFDS, December 2013), and Bioanalytical Method Validation Guidance for Industry (USA FDA, 2018). The plasma pelubiprofen was pretreated using protein precipitation in a dark room at room temperature (15–25 °C) and under shielded light for the subsequent liquid chromatograph tandem mass spectrometry (LC-MS/MS) analysis. The tested items in the validation included the intra-batch and inter-batch accuracy, precision, selectivity, linearity, and stability.
# [4] = design: method as in earlier work; details: cited from earlier work
# [5] = Study II, 30 mg pelubiprofen tromethamine vs. 30 mg pelubiprofen
# [6] = Study II, healthy subjects, single oral 30 mg pelubiprofen tromethamine, fasted, N = 33, mean ± SD
Compound,solubility and absorption compared to pelubiprofen [1],adverse events [2],"increase of AUC0-t compared to the reference [3, 5] [%]","increase of Cmax compared to the reference [3, 5] [%]","AUC0-inf [3, 6] [ng·h/mL]","AUC0-t [3, 6] [ng·h/mL]","CL/F [3, 6] [L/h]","Cmax [3, 6] [ng/mL]","Vd/F [3, 6] [L]","t1/2 [3, 6] [min]","Tmax ([3]; Study II, healthy subjects, single oral 30 mg pelubiprofen tromethamine, fasted, N = 33, median (minimum–maximum))",protein binding rate [4],"CL/F ([3]; Study II, healthy subjects, single oral 30 mg pelubiprofen (reference), fasted, N = 33, mean ± SD) [L/h]","highest within-subject variability for Cmax ([3]; Study II, reference 30 mg pelubiprofen, fasting, four-period repeated crossover)","AUC0-inf ([3]; human, plasma, po, 30 mg) [ng·h/mL]","AUC0-t ([3]; human, plasma, po, 30 mg) [ng·h/mL]","Cmax ([3]; human, plasma, po, 30 mg) [ng/mL]","Tmax ([3]; human, plasma, po, 30 mg) [min]","Vd/F ([3]; human, plasma, po, 30 mg) [L]","half-life ([3]; human, plasma, po, 30 mg) [min]"
"CC(C(=O)O)c1ccc(/C=C2\CCCCC2=O)cc1 (centres unmarked) [Pelubiprofen Tromethamine, pelubiprofen tromethamine]",enhanced solubility and absorption,one case of adverse events,24,29,447.75 ± 123.40,446.44 ± 123.33,72.08 ± 19.97,770.01 ± 347.86,94.56 ± 52.40,57 ± 33.6,0.33 (0.17–2.50) h,,,,,,,,,
"CC(C(=O)O)c1ccc(/C=C2\CCCCC2=O)cc1 (centres unmarked) [Pelubiprofen, 2-[4-(oxocyclohexylidenemethyl)-phenyl] propionic acid]",,,,,,,,,,,,high protein binding rate,90.55 ± 32.04,approximately 58%,366 ± 108,365 ± 108,619 ± 336,30,119 ± 94.1,55.8 ± 41.4
